Source: patent US8392127B2, “Methods and gene expression signature for assessing growth factor signaling pathway regulation status” (Merck Sharp & Dohme Corp., priority 2008, dated 2013)
“Also recorded” adds a separate entry of the source. Where two headings read alike, the source gives them in different places.

Key:
HCT116 = assay: Sensitivity to cell killing by cMET inhibitor MK-2461; format: cell-based
HT29 = assay: as above; format: cell-based
EBC-1 = assay: as above; format: cell-based
EBC-1 tumor cells = assay: EBC-1 xenograft tumor growth; format: in vivo, HRLN female nu/nu mice
Method: (§1) HRLN female nu/nu mice were subcutaneously implanted with 5×10^6 EBC-1 tumor cells. Tumors were allowed to grow an average size of 450-500 mg before treatment was administered. Xenografts were treated with vehicle or 11, 34, or 112 mpk of MK-2461 (n=4 for each treatment group). […] Treatment was administered PO BID for 7 days. Tumors were harvested 2 hours after the final dose, as this was the estimated time to achieve Cmax.

Colo205 = assay: Sensitivity to cell killing by cMET inhibitor MK-2461; format: cell-based
HCT15 (or AGS) = assay: as above; format: cell-based
GTL-16 = assay: as above; format: cell-based
A549 = assay: as above; format: cell-based
[1] = system: growth factor signaling pathway signature in EBC-1 xenografts; assay: Growth factor signaling pathway signature score in EBC-1 xenografts (microarray); format: in vivo, HRLN female nu/nu mice; conditions: 112 mpk PO BID for 7 days; tumors harvested 2 hours after the final dose
Method: as §1
RNA was harvested from both vehicle-treated and compound-treated samples. Regulation of the growth factor signaling pathway signature by MK-2461 was assessed by comparing gene expression profiles of MK-2461 treated samples to the mean gene expression profile of the 4 vehicle treated samples. The log(10) ratio of expression in the MK-2461 treated samples relative to the mean of the vehicle treated samples was calculated for every probe on the microarray. The growth factor signaling pathway signature score was calculated as the mean log(10) ratio of the genes in the “up” arm of the signature (see Table 5a) minus the mean log(10) ratio of the genes in the “down” arm of the signature (see Table 5b).

[2] = system: growth factor signaling pathway signature in GTL-16; assay: Growth factor signaling pathway signature score after MK-2461 in cell lines (microarray); format: cell-based; conditions: 1 μM, 6 and 12 hours post-treatment
Method: (§2) Ten cell lines with alternations of the PI3K/MAPK pathway components were identified (see Table 6), including two cell lines with amplification of cMET (EBC-1 and GTL-16). […] To assess the regulation of the growth factor signaling pathway signature in these cells, these cell lines were treated with vehicle or 1 μM MK-2461. The cell lines were profiled at 6 and 12 hours post-treatment. Duplicate cultures were seeded in 6-well plates for each treatment group. Cell were ˜70% confluent at time of collection. Experiments were performed in duplicate.
(§3) RNA was harvested from both vehicle-treated and compound treated cells, and regulation of the growth factor signaling pathway by MK-2461 was assessed by comparing gene expression profiles of MK-2461 treated cells to vehicle treated cells. For every probe on the microarray, the log(10) ratio of expression in the MK-2461 treated samples relative to the cell line-matched vehicle treated samples was calculated. The growth factor signaling pathway signature score was calculated as the mean log(10) ratio of the genes in the “up” arm of the signature (see Table 5a) minus the mean log(10) ratio of the genes in the “down” arm of the signature (see Table 5b).

[3] = system: growth factor signaling pathway signature in EBC-1; assay: as above; format: cell-based; conditions: 1 μM, 6 and 12 hours post-treatment
Method: as §2, §3

## CN(C[C@@H]1COCCO1)S(=O)(=O)Nc1ccc2ccc3ncc(-c4cnn(C)c4)cc3c(=O)c2c1 [MK-2461, N-[(2R)-1,4-dioxan-2-ylmethyl]-N-methyl-N′-[3-(1-methyl-1H-pyrazol-4-yl)-5-oxo-5H-benzo[4,5]cyclohepta[1,2-b]pyridin-7-yl]sulfamide]
HCT116
  sensitive to MK2461: no
HT29
  sensitive to MK2461: no
EBC-1
  sensitive to MK2461: sensitive to cell killing
EBC-1; listed as MK2461
  sensitive to MK2461: ✓
EBC-1 tumor cells; 11 mpk PO BID
  effect on tumor growth: no effect on tumor growth
EBC-1 tumor cells; 34 mpk PO BID
  effect on tumor growth: no effect on tumor growth
EBC-1 tumor cells; 112 mpk
  efficacy in xenografts: only dose that resulted in efficacy
EBC-1 tumor cells; 112 mpk PO BID
  tumor growth inhibition compared to vehicle treatment: approximately 30%
Colo205
  sensitive to MK2461: no
HCT15 (or AGS)
  sensitive to MK2461: no
GTL-16
  sensitive to MK2461: sensitive to cell killing
GTL-16; listed as MK2461
  sensitive to MK2461: ✓
A549
  sensitive to MK2461: no
[1]
  inhibition of the growth factor signaling pathway signature in xenografts: Inhibition of the growth factor signaling pathway signature was only observed
[2]
  inhibition of the growth factor signaling pathway signature: Inhibition of the growth factor signaling pathway signature was observed; also recorded: inhibition of the growth factor signaling pathway was only observed
[3]
  inhibition of the growth factor signaling pathway signature: Inhibition of the growth factor signaling pathway signature was observed; also recorded: inhibition of the growth factor signaling pathway was only observed
